The values that follow come from US10059655B2, “Lipids and lipid compositions for the delivery of active agents” (priority 2013, dated 2018).

Data set [1] can be described thus: Measurement of mRNA encapsulation in lipid nanoparticles (Quant-iT Ribogreen). The following applies: Leptin mRNA in LNP. It counts as physicochemical. The protocol:
All equipment and disposable supplies are certified free of RNase activity by the manufacturer or rendered RNase free by use of the RNaseZap reagent (LifeTechnologies). mRNA is encapsulated at a cationic lipid amine to mRNA phosphate (N:P) molar ratio of 4:1. Lipids (cationic lipid, DSPC, cholesterol and lipidated PEG or stealth lipid) are dissolved in ethanol. The molar ratios are 40:10:38:2, respectively. The mixture is sonicated briefly, then gently agitated for 5 minutes and then maintained at 37° C. until use. mRNA is exchanged into citrate buffer pH 5.8-6.0 by use of Amicon Ultra-15 centrifugal concentrators, and the final concentration is adjusted to 0.5 mg/ml and held at 37° C. until use. An equal volume of lipids in ethanol, mRNA in citrate buffer, and citrate buffer alone are drawn into disposable syringes.
Tubing leading from syringes containing lipids and mRNA are attached to the T junction, and tubing leading from the syringe containing citrate buffer alone is paired with the tubing exiting the T-junction over a collection vessel containing a stir bar on an active stir plate. Syringes are placed in a syringe pump set to expel contents at a flow rate of 1 ml per minute. The pump is activated, and the collected mRNA in lipid nanoparticles is transferred to SnakeSkin dialysis tubing (10,000 MWCO, Thermo Scientific). Material is dialyzed against RNAse- and pyrogen-free 1× phosphate buffered saline overnight at 4° C.
Percent encapsulation of mRNA in lipid nanoparticles is determined using the Quant-iT Ribogreen RNA Assay kit (Life Technologies). The LNP-mRNA suspension is assayed in buffer (mRNA outside the particle), and buffer plus Triton X-100 detergent (total mRNA). The difference calculated is the mRNA inside the particle. Prepare a 1000 ng/mL stock from the RNA provided in the kit and use this to generate a standard curve (0 ng/ml, 15.63-1000 ng/ml) in TE and TE+0.75% Triton X-100. Prepare LNP-mRNA samples in TE buffer and TE buffer+0.75% Triton X-100 with appropriate dilution so that reading is in the range of standard curve (400-2,000 fold). In a 384-well plate (Costar non-treated #3573) add 0.04 ml of standard (in duplicate) or sample (in triplicate) per well. Dilute Ribogreen reagent 240-fold in TE buffer and add 0.06 ml per well. Mix contents of wells and measure fluorescence (excitation=480 nm, emission=520 nm). Subtract background values (no RNA) from standard and test sample values and determine the concentrations of RNA in the samples using the standard curves. Determine the percent encapsulation of the sample by dividing the difference in concentrations between sample+triton and sample in buffer alone by the sample+triton concentration.

Data set [2] is described as follows: Particle size of the lipid nanoparticle (Z-average, dynamic light scattering, Malvern Zetasizer). It counts as physicochemical. The settings on record: RSV-F replicon RNA LNP, DLS; for Size 1st IM: 1st immunization; for Size 2nd IM: 2nd immunization. The text has this: The lipid nanoparticles have a size of about 1 to about 2,500 nm, about 10 to about 1,500 nm, about 20 to about 1,000 nm, in a sub-embodiment about 50 to about 600 nm, in a sub-embodiment about 50 to about 400 nm, in a sub-embodiment about 50 to about 250 nm, and in a sub-embodiment about 50 to about 150 nm. Unless indicated otherwise, all sizes referred to herein are the average sizes (diameters) of the fully formed nanoparticle, as measured by dynamic light scattering on a Malvern Zetasizer. The nanoparticle sample is diluted in phosphate buffered saline (PBS) so that the count rate is approximately 200-400 kcts. The data is presented as a weighted average of the intensity measure.
Unless indicated otherwise, all particle size measurements referred to in Table 3 are the Z-average particle size of the fully formed nanoparticle, as measured by dynamic light scattering on a Malvern Zetasizer. The nanoparticle sample was diluted in phosphate buffered saline (PBS) so that the count rate is approximately 200-400 kcts.
(§1) % entrapment (% E), Concentration of RNA (Conc), particle size measured by DLS, and polydispersity reported by DLS of LNPs prepared with different cationic lipids
On the technique in general: A replicon is a self-replicating genome or part of one, used to study replication in cells.

A short description of data set [3]: Polydispersity index (PDI) by dynamic light scattering. It counts as physicochemical. The following applies: RSV-F replicon RNA LNP, DLS; for PDI 1st IM: 1st immunization; for PDI 2nd IM: 2nd immunization. The protocol: Unless indicated otherwise, all PDIs referred to herein are the PDI of the fully formed nanoparticle, as measured by dynamic light scattering on a Malvern Zetasizer. The nanoparticle sample was diluted in phosphate buffered saline (PBS) so that the count rate was approximately 200-400 kcts. The data is presented in Table 3 as a weighted average of the intensity measure.
as §1

Data set [4] relates to RSV F protein. The data set can be described thus: RSV immunogenicity: F-specific IgG titers after IM vaccination with liposome-formulated self-replicating RNA. The settings on record: IM days 0 and 21, BALB/c mice, two weeks after two immunizations. Type of data set: in vivo.
Data set [5] can be described thus: Percentage of encapsulated RNA and RNA concentration of replicon liposomes (Quant-iT RiboGreen). It counts as physicochemical. The settings on record: for %E (% entrapment) 1st IM / Conc (Concentration of RNA) 1st IM: RSV-F replicon RNA LNP prepared for 1st immunization; for %E (% entrapment) 2nd IM / Conc (Concentration of RNA) 2nd IM: RSV-F replicon RNA LNP prepared for 2nd immunization. The protocol: RNA was encapsulated in liposomes made essentially by the method of Geall et al. (2012) PNAS vol. 109 (36): 14604-14609, Jeffs et al. (2005) Pharmaceutical Research 22 (3):362-372, and Maurer et al. (2001) Biophysical Journal, 80: 2310-2326 The liposomes were made of 10% DSPC (zwitterionic), 40% cationic lipid, 48% cholesterol and 2% PEG-conjugated DMG (2 kDa PEG). These proportions refer to the % moles in the total liposome.
Briefly, lipids were dissolved in ethanol (2 ml), a RNA replicon was dissolved in buffer (2 ml, 100 mM sodium citrate, pH 6) and these were mixed with 2 ml of buffer followed by 1 hour of equilibration. The mixture was then dialized overnight against 1×PBS. The resulting product contained liposomes, with ˜70-95% encapsulation efficiency. For in vitro and in vivo experiments formulations were diluted to the required RNA concentration with 1×PBS.
The percentage of encapsulated RNA and RNA concentration were determined by Quant-iT RiboGreen RNA reagent kit (Invitrogen), following manufacturer's instructions. The ribosomal RNA standard provided in the kit was used to generate a standard curve. Liposomes were diluted 10× or 100× in 1×TE buffer (from kit) before addition of the dye. Separately, liposomes were diluted 10× or 100× in 1×TE buffer containing 0.5% Triton X before addition of the dye (to disrupt the liposomes and thus to assay total RNA). Thereafter an equal amount of dye was added to each solution and then ˜180 μL of each solution after dye addition was loaded in duplicate into a 96 well tissue culture plate. The fluorescence (Ex 485 nm, Em 528 nm) was read on a microplate reader. All liposome formulations were dosed in vivo based on the encapsulated amount of RNA.
as §1

As for `CCCCC/C=C\C/C=C\CCCCCCCC(=O)OCC(COC(=O)CCC(OCCCCCCCC)OCCCCCCCC)COC(=O)CCN(C)C` (stereo not shown) [Example 32, (9Z,12Z)-3-((4,4-bis(octyloxy)butanoyl)oxy)-2-(((3-(dimethylamino)propanoyl)oxy)methyl)propyl octadeca-9,12-dienoate], the “% encapsulation mRNA Leptin” value in data set [1] amounted to 97.1%. Further, in data set [2], the “Size 1st IM” value is given as 136.2 nm and the “Size 2nd IM” value is 135 nm. Also, in data set [3], the “PDI 1st IM” value came to 0.147 and the “PDI 2nd IM” value amounted to 0.088. Further, the “Immunogenicity (2wp2; log10 IgG titers)” value in data set [4] (0.1 ng replicon RNA) was determined as 4.77 log10 IgG titers. Further, the “Immunogenicity (2wp2; log10 IgG titers)” value in data set [4] (1 ng replicon RNA) amounted to 4.92 log10 IgG titers. In addition, in data set [5], the “%E (% entrapment) 1st IM” value is 92.6%, the “Conc (Concentration of RNA) 1st IM” value came out at 8810 ng/mL, the “%E (% entrapment) 2nd IM” value is 94.72% and the “Conc (Concentration of RNA) 2nd IM” value was found to be 9653 ng/mL.

Consider `CCCCC/C=C\C/C=C\CCCCCCCC(=O)OCC(COC(=O)CCC(OCCCCCCCC)OCCCCCCCC)COC(=O)C1CCN(CC2CC2)CC1` (stereo not shown) [Example 34, 3-((4,4-bis(octyloxy)butanoyl)oxy)-2-(((9Z,12Z)-octadeca-9,12-dienoyloxy)methyl)propyl 1-(cyclopropylmethyl)piperidine-4-carboxylate], for which, in data set [1], the “% encapsulation mRNA Leptin” value is reported as 97.1%. Moreover, in data set [2], the “Size 1st IM” value was 136.2 nm and the “Size 2nd IM” value came out at 135.4 nm. Besides, in data set [3], the “PDI 1st IM” value was 0.116 and the “PDI 2nd IM” value came to 0.11. Also, the “Immunogenicity (2wp2; log10 IgG titers)” value in data set [4] (0.1 ng replicon RNA) is recorded as 3.73 log10 IgG titers. In data set [4] (1 ng replicon RNA), the “Immunogenicity (2wp2; log10 IgG titers)” value turned out to be 4.36 log10 IgG titers. In addition, in data set [5], the “%E (% entrapment) 1st IM” value came to 75.5%, the “Conc (Concentration of RNA) 1st IM” value stood at 9240 ng/mL, the “%E (% entrapment) 2nd IM” value stood at 79.19% and the “Conc (Concentration of RNA) 2nd IM” value was found to be 11495 ng/mL.

With `CCCCC/C=C\C/C=C\CCCCCCCC(=O)OCC(COC(=O)CCC(OCCCCCCCC)OCCCCCCCC)COC(=O)C1CCN(C)C1` (stereo not shown) [Example 35, 3-((4,4-bis(octyloxy)butanoyl)oxy)-2-(((9Z,12Z)-octadeca-9,12-dienoyloxy)methyl)propyl 1-methylpyrrolidine-3-carboxylate], the “% encapsulation mRNA Leptin” value in data set [1] is listed as 97.3%. Moreover, in data set [2], the “Size 1st IM” value came out at 135.2 nm and the “Size 2nd IM” value is recorded as 137.5 nm. Also, in data set [3], the “PDI 1st IM” value is 0.119 and the “PDI 2nd IM” value is reported as 0.108. For the same compound, the “Immunogenicity (2wp2; log10 IgG titers)” value in data set [4] (0.1 ng replicon RNA) was 4.53 log10 IgG titers. For the same compound, the “Immunogenicity (2wp2; log10 IgG titers)” value in data set [4] (1 ng replicon RNA) was 4.86 log10 IgG titers. Further, in data set [5], the “%E (% entrapment) 1st IM” value is recorded as 93.46%, the “Conc (Concentration of RNA) 1st IM” value was 10059 ng/mL, the “%E (% entrapment) 2nd IM” value was 93.9% and the “Conc (Concentration of RNA) 2nd IM” value amounted to 9937 ng/mL.

Turning to `CCCCC/C=C\C/C=C\CCCCCCCC(=O)OCC(COC(=O)CCC(OCCCCCCCC)OCCCCCCCC)COC(=O)C1(C)CCN(C)CC1` (stereo not shown) [Example 40, 3-((4,4-bis(octyloxy)butanoyl)oxy)-2-(((9Z,12Z)-octadeca-9,12-dienoyloxy)methyl)propyl 1,4-dimethylpiperidine-4-carboxylate], the “% encapsulation mRNA Leptin” value in data set [1] was found to be 97.2%. In data set [2], the “Size 1st IM” value came to 141 nm and the “Size 2nd IM” value turned out to be 137.3 nm. Further, in data set [3], the “PDI 1st IM” value was determined as 0.122 and the “PDI 2nd IM” value is recorded as 0.118. Further, the “Immunogenicity (2wp2; log10 IgG titers)” value in data set [4] (0.1 ng replicon RNA) was determined as 4.31 log10 IgG titers. Further, the “Immunogenicity (2wp2; log10 IgG titers)” value in data set [4] (1 ng replicon RNA) was determined as 4.74 log10 IgG titers. In data set [5], the “%E (% entrapment) 1st IM” value came out at 71.1%, the “Conc (Concentration of RNA) 1st IM” value came to 9461 ng/mL, the “%E (% entrapment) 2nd IM” value is on record as 78.05% and the “Conc (Concentration of RNA) 2nd IM” value worked out at 9650 ng/mL.

For the compound `CCCCC/C=C\C/C=C\CCCCCCCC(=O)OCC(COC(=O)CCC(OCCCCCCCC)OCCCCCCCC)COC(=O)OC1CCN(C)CC1` (stereo not shown) [Example 48, (9Z,12Z)-3-((4,4-bis(octyloxy)butanoyl)oxy)-2-(((((1-methylpiperidin-4-yl)oxy)carbonyl)oxy)methyl)propyl octadeca-9,12-dienoate], in data set [1], the “% encapsulation mRNA Leptin” value amounted to 92.8%. In data set [2], the “Size 1st IM” value was determined as 137.9 nm and the “Size 2nd IM” value was determined as 134.2 nm. Besides, in data set [3], the “PDI 1st IM” value is reported as 0.091 and the “PDI 2nd IM” value is 0.075. Further, in data set [4] (0.1 ng replicon RNA), the “Immunogenicity (2wp2; log10 IgG titers)” value was 4.58 log10 IgG titers. For the same compound, in data set [4] (1 ng replicon RNA), the “Immunogenicity (2wp2; log10 IgG titers)” value is listed as 5.02 log10 IgG titers. In data set [5], the “%E (% entrapment) 1st IM” value stood at 86.169%, the “Conc (Concentration of RNA) 1st IM” value was 9841 ng/mL, the “%E (% entrapment) 2nd IM” value is recorded as 85.6% and the “Conc (Concentration of RNA) 2nd IM” value turned out to be 9665 ng/mL.
